Values quoted from earlier work in patent US6391342B1, “Pharmaceutical formulation comprising a 2- [(2-pyridinyl) methyl] sulfinyl benzimidazole having anti-ulcer activity and a process for the preparation of such formulation” (A/S GEA Farmaceutisk Fabrik, priority 1998, dated 2002).
Like-named read-outs stand apart in the source and are kept apart here.

stability to acids (acids): sensible to acids
solubility (in alkaline solutions): very soluble
solubility (in water): only slightly soluble
SMILES: COc1ccc2[nH]c([S+]([O-])Cc3ncc(C)c(OC)c3C)nc2c1 (stereo not drawn) [omeprazole, 5-methoxy-2-[[(4-methoxy-3,5-dimethyl-2-pyridinyl)methyl]sulfinyl]-1H-benzimidazole]
